Assay results reported in patent publication US20200297621A1, “Topical Compositions for Neuropathic Pain” (GOOD PHARMACEUTICAL DEVELOPMENT COMPANY, LLC, priority 2016, published 2020).
“And” between values parts separate entries of the source, which are not always exact repeats. Equal values may be shown once.

Assay: Stability testing of the topical gabapentin/ketamine composition
Assay type: physicochemical
Design: Assay: unit not given beside the values
Settings: for Assay (avg): avg of the two determinations; for Assay: single determinations

| SMILES | Assay (avg) (2 wk, 25/60) | Assay (2 wk, 25/60) | Assay (avg) (2 wk, 40/75) | Assay (2 wk, 40/75) | Assay (avg) (t = 0) | Assay (t = 0) | Assay (2 wk, 25/60, acetic acid) | Assay (2 wk, 40/75, acetic acid) | Assay (t = 0, acetic acid) |
| --- | --- | --- | --- | --- | --- | --- | --- | --- | --- |
| CNC1(c2ccccc2Cl)CCCCC1=O.Cl (racemic) [Ketamine HCl, (±) 2-(o-chlorophenyl)-2-(methylamino)-cyclohexanone] | 105.8 | 105.9 and 105.7 | 105.2 | 105.2 | 106.3 | 108.8 and 103.9 | – | – | – |
| NCC1(CC(=O)O)CCCCC1 [Gabapentin, 1-(aminomethyl)cyclohexane acetic acid] | 106.6 | – | 105.8 | – | 111.3 | – | 105.4 and 107.8 | 106.1 and 105.5 | 111.9 and 110.7 |
| COC(=O)c1ccc(O)cc1 [Methylparaben] | 106.1 | 108.2 and 104.1 | 108.1 | 109.6 and 106.7 | 112.0 | 111.1 and 112.9 | – | – | – |
